According to ChEMBL document CHEMBL1697731, “Cheminformatics analysis of assertions mined from literature that describe drug-induced liver injury in different species” (Chem Res Toxicol, 2010):

Legend:
Hepatotoxicity [1] = test: Literature-mined compound from Fourches et al multi-species drug-induced liver injury (DILI) dataset, effect in humans; settings: human
Hepatotoxicity [2] = test: Literature-mined compound from Fourches et al multi-species drug-induced liver injury (DILI) dataset, effect in rodents; settings: rodentia
Hepatotoxicity [3] = test: Literature-mined compound from Fourches et al multi-species drug-induced liver injury (DILI) dataset, effect in non-rodents

SMILES | Hepatotoxicity (Hepatotoxicity [1]) | Hepatotoxicity (Hepatotoxicity [2]) | Hepatotoxicity (Hepatotoxicity [3]) | Hepatotoxicity (Hepatotoxicity [1]; Liver) | Hepatotoxicity (Hepatotoxicity [2]; Liver) | Hepatotoxicity (Hepatotoxicity [3]; Liver)
N[C@@H](Cc1cc(I)c(Oc2cc(I)c(O)c(I)c2)c(I)c1)C(=O)O [LEVOTHYROXINE] | drug-induced liver injury reported | drug-induced liver injury reported | drug-induced liver injury reported |  |  | 
CCN(CC)CC(=O)Nc1c(C)cccc1C [LIDOCAINE] |  |  |  | drug-induced liver injury reported | drug-induced liver injury reported | drug-induced liver injury reported
N[C@@H](Cc1cc(I)c(Oc2ccc(O)c(I)c2)c(I)c1)C(=O)O [LIOTHYRONINE] | drug-induced liver injury reported | drug-induced liver injury reported | no drug-induced liver injury reported |  |  | 
NCCCC[C@H](N[C@@H](CCc1ccccc1)C(=O)O)C(=O)N1CCC[C@H]1C(=O)O [LISINOPRIL ANHYDROUS] | drug-induced liver injury reported | drug-induced liver injury reported | no drug-induced liver injury reported |  |  | 
CN(CCCN1c2ccccc2CCc2ccccc21)CC(=O)c1ccc(Cl)cc1 [LOFEPRAMINE] | drug-induced liver injury reported | no drug-induced liver injury reported | no drug-induced liver injury reported |  |  | 
O=NN(CCCl)C(=O)NC1CCCCC1 [LOMUSTINE] | drug-induced liver injury reported | drug-induced liver injury reported | no drug-induced liver injury reported |  |  | 
CN(C)C(=O)C(CCN1CCC(O)(c2ccc(Cl)cc2)CC1)(c1ccccc1)c1ccccc1 [LOPERAMIDE] | no drug-induced liver injury reported | drug-induced liver injury reported | no drug-induced liver injury reported |  |  | 
Cc1cccc(C)c1OCC(=O)N[C@@H](Cc1ccccc1)[C@@H](O)C[C@H](Cc1ccccc1)NC(=O)[C@H](C(C)C)N1CCCNC1=O [LOPINAVIR] | drug-induced liver injury reported | no drug-induced liver injury reported | no drug-induced liver injury reported |  |  | 
CN1C(C(=O)Nc2ccccn2)=C(O)c2sc(Cl)cc2S1(=O)=O [LORNOXICAM] | drug-induced liver injury reported | no drug-induced liver injury reported | no drug-induced liver injury reported |  |  | 
CCCCc1nc(Cl)c(CO)n1Cc1ccc(-c2ccccc2-c2nn[nH]n2)cc1 [LOSARTAN] | drug-induced liver injury reported | drug-induced liver injury reported | no drug-induced liver injury reported |  |  | 
CCOC(=O)CC(SP(=S)(OC)OC)C(=O)OCC (configuration not stated) [MALATHION] | no drug-induced liver injury reported | drug-induced liver injury reported | no drug-induced liver injury reported |  |  | 
CC(C)OC(=O)C(C(=O)OC(C)C)=C1SC=CS1 [MALOTILATE] | drug-induced liver injury reported | drug-induced liver injury reported | no drug-induced liver injury reported |  |  | 
OC[C@@H](O)[C@@H](O)[C@H](O)[C@H](O)CO [MANNITOL] | drug-induced liver injury reported | drug-induced liver injury reported | drug-induced liver injury reported |  |  | 
C#C[C@]1(O)CC[C@H]2[C@@H]3CCC4=CCCC[C@@H]4[C@H]3C(=C)C[C@@]21CC.C#C[C@]1(O)CC[C@H]2[C@@H]3CCc4cc(O)ccc4[C@H]3CC[C@@]21C [MARVELON] | drug-induced liver injury reported | no drug-induced liver injury reported | no drug-induced liver injury reported |  |  | 
OC1(c2ccc(Cl)cc2)c2ccccc2C2=NCCN21 (configuration not stated) [MAZINDOL] | no drug-induced liver injury reported | drug-induced liver injury reported | no drug-induced liver injury reported |  |  | 
COC(=O)Nc1nc2ccc(C(=O)c3ccccc3)cc2[nH]1 [MEBENDAZOLE] | drug-induced liver injury reported | no drug-induced liver injury reported | drug-induced liver injury reported |  |  | 
CCC(C)C(C)(COC(N)=O)COC(N)=O (configuration not stated) [MEBUTAMATE] | no drug-induced liver injury reported | drug-induced liver injury reported | no drug-induced liver injury reported |  |  | 
Cc1cccc(CN2CCN(C(c3ccccc3)c3ccc(Cl)cc3)CC2)c1 (configuration not stated) [MECLIZINE] | no drug-induced liver injury reported | drug-induced liver injury reported | no drug-induced liver injury reported |  |  | 
CN(C)CCOC(=O)COc1ccc(Cl)cc1 [MECLOFENOXATE] | no drug-induced liver injury reported | drug-induced liver injury reported | no drug-induced liver injury reported |  |  | 
Cc1cccc(C(C)c2cnc[nH]2)c1C (configuration not stated) [MEDETOMIDINE] |  |  |  | drug-induced liver injury reported | no drug-induced liver injury reported | drug-induced liver injury reported

SMILES | Hepatotoxicity (Hepatotoxicity [1]) | Hepatotoxicity (Hepatotoxicity [2]) | Hepatotoxicity (Hepatotoxicity [3]) | Hepatotoxicity (Hepatotoxicity [1]; Liver) | Hepatotoxicity (Hepatotoxicity [2]; Liver) | Hepatotoxicity (Hepatotoxicity [3]; Liver)
CC(=O)O[C@]1(C(C)=O)CC[C@H]2[C@@H]3C[C@H](C)C4=CC(=O)CC[C@]4(C)[C@H]3CC[C@@]21C [MEDROXYPROGESTERONE ACETATE] | no drug-induced liver injury reported | drug-induced liver injury reported | no drug-induced liver injury reported |  |  | 
Cc1cccc(Nc2ccccc2C(=O)O)c1C [MEFENAMIC ACID] |  |  |  | drug-induced liver injury reported | drug-induced liver injury reported | no drug-induced liver injury reported
CC(=O)O[C@]1(C(C)=O)CC[C@H]2[C@@H]3C=C(C)C4=CC(=O)CC[C@]4(C)[C@H]3CC[C@@]21C [MEGESTROL ACETATE] | drug-induced liver injury reported | drug-induced liver injury reported | no drug-induced liver injury reported |  |  | 
CNC[C@H](O)[C@@H](O)[C@H](O)[C@H](O)CO [MEGLUMINE] | drug-induced liver injury reported | no drug-induced liver injury reported | no drug-induced liver injury reported |  |  | 
Cc1cnc(NC(=O)C2=C(O)c3ccccc3S(=O)(=O)N2C)s1 [MELOXICAM] | drug-induced liver injury reported | no drug-induced liver injury reported | no drug-induced liver injury reported |  |  | 
CC1=CC(=O)c2ccccc2C1=O [MENADIONE] | drug-induced liver injury reported | drug-induced liver injury reported | drug-induced liver injury reported |  |  | 
CC1CCC(C(C)C)C(O)C1 (configuration not stated) [MENTHOL] | drug-induced liver injury reported | no drug-induced liver injury reported | no drug-induced liver injury reported |  |  | 
CCOC(=O)C1(c2ccccc2)CCN(C)CC1 [MEPERIDINE] | drug-induced liver injury reported | no drug-induced liver injury reported | no drug-induced liver injury reported |  |  | 
CCC1(c2ccccc2)NC(=O)N(C)C1=O (configuration not stated) [MEPHENYTOIN] | no drug-induced liver injury reported | drug-induced liver injury reported | no drug-induced liver injury reported |  |  | 
CCC1(c2ccccc2)C(=O)NC(=O)N(C)C1=O (configuration not stated) [MEPHOBARBITAL] | no drug-induced liver injury reported | drug-induced liver injury reported | no drug-induced liver injury reported |  |  | 
Cc1cccc(C)c1NC(=O)C1CCCCN1C (configuration not stated) [MEPIVACAINE] | no drug-induced liver injury reported | drug-induced liver injury reported | no drug-induced liver injury reported |  |  | 
CCCC(C)(COC(N)=O)COC(N)=O [MEPROBAMATE] | no drug-induced liver injury reported | drug-induced liver injury reported | no drug-induced liver injury reported |  |  | 
COc1ccc(O)cc1 [MEQUINOL] | no drug-induced liver injury reported | drug-induced liver injury reported | no drug-induced liver injury reported |  |  | 
Sc1ncnc2nc[nH]c12 [MERCAPTOPURINE ANHYDROUS] |  |  |  | drug-induced liver injury reported | drug-induced liver injury reported | no drug-induced liver injury reported
C[C@@H](O)[C@H]1C(=O)N2C(C(=O)O)=C(S[C@@H]3CN[C@H](C(=O)N(C)C)C3)[C@H](C)[C@H]12 [MEROPENEM] | drug-induced liver injury reported | no drug-induced liver injury reported | no drug-induced liver injury reported |  |  | 
Nc1ccc(O)c(C(=O)O)c1 [MESALAMINE] | drug-induced liver injury reported | drug-induced liver injury reported | no drug-induced liver injury reported |  |  | 
O=S(=O)([O-])CCS.[Na+] [MESNA] | no drug-induced liver injury reported | drug-induced liver injury reported | no drug-induced liver injury reported |  |  | 
C#C[C@]1(O)CC[C@H]2[C@@H]3CCc4cc(OC)ccc4[C@H]3CC[C@@]21C [MESTRANOL] | drug-induced liver injury reported | drug-induced liver injury reported | drug-induced liver injury reported |  |  | 
CN(C)C(=N)N=C(N)N [METFORMIN] |  |  |  | drug-induced liver injury reported | drug-induced liver injury reported | drug-induced liver injury reported
